Reference: article PMC12593371, “Whole-Body Disposition and Metabolism of [^14C]-2,4,4′-Trichlorobiphenyl (PCB28) Following Lung Administration in Rats” (Environmental Science & Technology, 2025)

Experiment: Mass balance and whole-body tissue distribution of radioactivity after intratracheal [14C]-PCB28
Type: in vivo, Male Sprague–Dawley rats
Conditions: for contribution of adipose tissue to total radioactivity: 720 min; for share of the remaining radioactivity: 12 min
Description: Male Sprague–Dawley rats (8 weeks old) weighing 230–285 g (mean of 256 g) were used in this study (Envigo, Indianapolis, IN). Male rats were selected to maintain consistency with previous toxicokinetic investigations of lower-chlorinated PCBs, specifically the study on intratracheally instilled ^14C-labeled dichlorinated PCB11, which also utilized male rats. This approach facilitated direct comparison across studies and contributed to a more comprehensive toxicokinetic data set for LC-PCBs following inhalation exposure. A PCB toxicokinetic study being published separately investigated placental transfer and fetal uptake in pregnant females. All animals were handled in compliance with an approved Institutional Animal Care and Use Committee protocol (protocol#: 3091097 approved on 10/12/2023). Rats were pair-housed in a light and temperature-controlled environment with access to food and water ad libitum. After 1 week of acclimatization, rats were assigned to either a high-dose (HD) group (n = 9) or a low-dose (LD) group (n = 5) at random. Control rats (n = 3) were exposed to a single dose of unlabeled PCB28 (42 μg in 200 μL) and necropsied 50 min after exposure to establish background levels for radioactivity calculations in blank tissues. […] Therefore, animal numbers were customized between groups to most efficiently utilize the limited available ^14C-PCB28 stock in our lab.
Animals in the HD group were intratracheally (i.t.) administered 42 μg of a one-time single dose of [^14C]-PCB28 in 200 μL of vehicle, while animals in the LD group received 4.2 μg of [^14C]-PCB28 in 100 μL of vehicle. The i.t. route for dosing was selected due to the limited availability and extraordinary cost of the radiolabeled PCB28, and to avoid ^14C contamination of the inhalation exposure apparatus. All i.t. instillation was performed under light anesthesia (4% isoflurane via a precision vaporizer Fortec, Cyprane, Keighley, UK). Rats recovered from the anesthesia within 2 min while held within a cylindrical glass chamber (2 L), equipped with drainage ports to facilitate urine collection and a metallic screen to segregate urine from feces (as illustrated in Figure S1). Air was drawn from the chamber at 6.0 L/min through a cartridge containing XAD-2 polymeric resin (Amberlite, Millipore Sigma, Burlington, MA) to capture any exhaled [^14C]-PCB28. For the longer time points (720 and 1440 min), individual rats were placed in metabolic cages following a similar protocol for excreta and exhaled breath collection. After exposure, the inner walls of the chamber were rinsed separately with water, acetone, and hexane (25 – 45 mL) and wiped to measure radioactivity. Rat fur was also wiped and analyzed for radioactivity. The rats exposed to the HD were euthanized using isoflurane and exsanguination via cardiac puncture at 12, 25, 50, 100, 200, 400, 720, and 1440 min postexposure (n = 1 per time point except n = 2 for 200 min). Animals exposed to the LD were similarly necropsied at time points of 2, 12, 50, 200, and 720 min postexposure (n = 2). Euthanasia was consistently performed during the light cycle, except in the case of the 720 min time point, wherein euthanasia occurred outside the light cycle.
Serum and blood cells were separated. Two to six technical replicates were collected from 36 tissue types and digestive matter (diluted in ultrapure water) from 5 different GI tract locations. Muscle and adipose tissue samples were obtained from various locations. The collected tissue samples were placed in scintillation vials containing 1 mL of solvable cocktail and kept at 37 °C overnight for complete solubilization. To enable subsequent analyses, the solubilized tissue samples underwent a 2-h heating phase at 50 °C. For the bone, feces, and digestive matter, 1 mL of isopropyl alcohol was added. For samples displaying darker coloration, a controlled volume of 30% hydrogen peroxide (100 to 300 μL) was slowly added in increments to remove potential interference. […]

Question: For Clc1ccc(-c2ccc(Cl)cc2Cl)cc1 [PCB28, 2,4,4′-trichlorobiphenyl], which “contribution of adipose tissue to total radioactivity” value (high dose) is on record?
Answer: The value was 30%.

Question: What about the “contribution of adipose tissue to total radioactivity” value (low dose) of the same compound?
Answer: The value was 28%.

Question: And the “share of the retained radioactivity sequestered in skin and adipose tissue” value (24 h)?
Answer: Its value is 67–77%.

Question: What about the “total radioactivity remaining within the body” value (24 h) of the same compound?
Answer: The value was 88–92%.

Question: And the “administered dose excreted via urine and feces” value (24 h study)?
Answer: The value was “less than 4%”.

Question: What about the “retention in the body or apparent bioavailability using fecal excretion” value (24 h study) of the same compound?
Answer: Its value is 92%.

Question: And the “increase of adipose [14C] concentration throughout the entire time course” value (high dose)?
Answer: Its value is 6.5 fold.

Question: What about the “increase of adipose [14C] concentration throughout the entire time course” value (low dose) of the same compound?
Answer: The value was 21 fold.

Question: What about the “reduction of quantified radioactivity between 12 and 50 min” value (from here on “reduction”) (blood) of the same compound?
Answer: Its value is 37–67%.

Question: What about the “total radioactivity excreted in the feces” value (by the end of the 24 h study period / at any time point) of the same compound?
Answer: The value was “no more than 4%”.

Question: What about the “time of peak concentration” value (duodenum digestive matter, both doses) of the same compound?
Answer: The value was 50 min.

Question: And the apparent bioavailability (from fecal excretion, 24 h)?
Answer: The apparent bioavailability was “up to 96%”.

Question: And the “nominal recovered radioactivity of the administered dose in the collected tissues” value (high dose (42 μg i.t.))?
Answer: Its value is 83 ± 5%.

Question: And the “exhaled breath, share of the total recovered radioactivity” value (intratracheal dosing)?
Answer: Its value is 0.07 ± 0.04%.

Question: What about the pulmonary uptake (intratracheal lung dosing) of the same compound?
Answer: The pulmonary uptake was 99.9 ± 3.5%.

Question: What about the “reduction” value (kidney) of the same compound?
Answer: Its value is 36–69%.

Question: What about the “reduction” value (liver) of the same compound?
Answer: The value was 41–58%.

Question: And the “share of the remaining radioactivity” value (liver, high dose)?
Answer: Its value is 16.8%.

Question: And the “share of the remaining radioactivity” value (liver, low dose)?
Answer: Its value is 20.6%.

Question: And the “nominal recovered radioactivity of the administered dose in the collected tissues” value (low dose (4.2 μg i.t.))?
Answer: The value was 74 ± 13%.

Question: What about the “reduction” value (lung) of the same compound?
Answer: The value was 56–73%.

Question: What about the “share of the remaining radioactivity” value (muscle plus liver, high dose) of the same compound?
Answer: The value was ~52.1%.

Question: And the “share of the remaining radioactivity” value (muscle, high dose)?
Answer: The value was 35.3%.

Question: And the “share of the remaining radioactivity” value (pulmonary regions, low dose)?
Answer: The value was 16.7%.

Question: What about the “more radioactivity retained in serum at the low dose than at the high dose” value (serum, same time point) of the same compound?
Answer: The value was 92%.

Question: And the “time of peak radioactivity” value (stomach matter)?
Answer: Its value is 50 min.
